{"source": "patent US20200123127A1", "about": "“REMOVAL OF SENESCENCE-ASSOCIATED MACROPHAGES” (EVERON BIOSCIENCES, INC., priority 2016, published 2020)", "key": {"SAMs": {"test_system": "SAMs", "test": "SAM viability (CyQuant Direct / resazurin)", "format": "cell-based, mouse", "conditions": "for SAM cell viability: 2.5 to 10 μM", "procedure": "FIG. 8. Immunomodulatory regulation of p16(Ink4a) and SAβG in macrophages. Peritoneal lavage cells elicited by alginate-encapsulated SCs from p16^Ink4a/Luc mice were treated ex vivo with immunomodulatory agents for up to 72 hours. (A) mRNA expression of p16(Ink4a) and β-galactosidase (Glb1) in macrophages (relative to B2m expression) with or without LPS stimulation for 72 hours analyzed via qRT-PCR, normalized to non-treated controls. (B) Microphotograph of SAβG-stained adherence-selected macrophages with or without stimulation with LPS (1 ng/mL) for 72 hours (10× objective). (C&D) Kinetics of p16(Ink4a) promoter-dependent luciferase activity per cell with or without LPS stimulation (C) or IL-4 stimulation (D), normalized to activity from non-treated cells at time zero. Results are shown as the mean±standard deviation for at least 3 experiments. Statistical significance with respect to non-treated control at time zero is indicated. (E) Luciferase activity and (3-galactosidase activity (via 4-MUG hydrolysis) from proteose peptone-elicited lavage cells following stimulation with IL-4 (20 ng/mL) for 72 hours, normalized to non-treated controls. (F) Viability following 72 hour dose-response to JAK1/2 inhibitor Ruxolitinib in the presence or absence of IL-4 (10 ng/mL) stimulation, measured by CyQuant Direct DNA-based viability assay. Viability normalized to respective controls lacking Ruxolitinib. (G&H) Dose-response of STAT6 inhibitor AS1517499 against luciferase activity (G) and viability via CyQuant Direct assay (H) following 72 hour treatment in the presence and absence of IL-4 (10 ng/mL). Results normalized to respective controls (with or without IL-4) lacking STAT6 inhibitor. Statistical significance is calculated with respect to the difference between IL-4 stimulated and non-stimulated cells at each concentration of STAT6 inhibitor. (I) Relative luciferase activity per cell following repolarization with M1- and M2-inducing agents. Macrophages were left non-treated (NT) or treated with either LPS (1 ng/ml) or IL-4 (20 ng/ml) for 72 hours (days 1-3), as indicated. For each treatment set, samples were collected at 72 hours (no further treatment; days 4-6=x). Alternatively, cells were washed and placed in fresh medium (−), medium containing LPS (1 ng/mL) and IFN-γ (10 ng/mL), or medium containing IL-4 (20 ng/mL) and IL-13 (10 ng/mL) and incubated for an additional 72 hours prior to sample collection (as indicated for days 4-6). Luciferase activity is expressed as the percent activity per cell relative to non-treated (NT) controls after the first 72 hours.\nFIG. 10. Elevated p16(Ink4a) and β-galactosidase is regulated by immunomodulatory agents in macrophages, but not in mesenchymal SCs. Primary cultures of adipose-derived mesenchymal stromal cells (AdMSC) isolated from p16^Ink4a/Luc mice were irradiated (20 Gy) and cultured for 10 days for senescence induction. Mock irradiated cells were used as a proliferating cell control. Response of senescent and proliferating AdMSCs to immunomodulatory agents were compared to that of peritoneal lavage cells elicited by our alginate bead model. A-D) Dose-response curves of LPS (top panels: […]) and Poly(I:C) (bottom panels: C&D) on p16(Ink4a) promoter-dependent luciferase activity (left panels: A&C) and beta-galactosidase activity measured via 4-MUG hydrolysis (right panels: B&D) after 72 hr treatment. […]\nFIG. 13. […] SAM viability was determined using the resazurin cell viability assay (Res). […]"}, "B16 cells": {"test_system": "B16 cells", "test": "In vitro growth and viability of B16 cells (resazurin)", "format": "cell-based", "conditions": "72 hour exposure, up to 20 uM", "excerpt": "FIG. 4. Efficacy of A1.1 analogs in the senescence-enhanced B16 metastasis model. (A) Quantification of metastatic nodules by H&E morphometric analysis, and the resulting reduction in tumor burden (%) compared to vehicle control. (B) Quantitation morphometric analysis of lungs excised from irradiated mice treated with analogs of A1.1 post-inoculation of B16 cell intravenously, along with quantitation of morphometric analysis, are provided. (C) In vitro testing of A1.1 and analogs against the growth and viability of B16 cells, as assessed by the resazurin viability assay after 72 hour exposure to compounds compared to non-treated controls.\nThe role of senescent cells in the promotion of metastatic potential of cancer cells has also been described [Patent WO 2013090645 A1; Campisi, J. (2015). Cancer and Aging: Rival Demons]. […] To test the efficacy of A1.1, irradiated (11 Gy followed by bone-marrow transplantation) and non-irradiated C57BL/6 mice received B16 melanoma cells via tail vein injection were subsequently (72 hours later) administered A1.1 (20 mg/kg) intraperitoneally once a day for 5 consecutive days.\nSynthesized analogs were also tested in vivo, to assess whether optimized structures are capable of showing activity against senescence-mediated B16 lung metastasis in irradiated mice (FIG. 4B). […]"}, "[1]": {"test_system": "mSQ primary adipose-derived mesenchymal stromal cells", "test": "Anti-senescent cytotoxicity, senescent vs proliferating mSQ", "format": "cell-based, Mouse", "conditions": "for IC50: Mus musculus"}}, "note": "“Also recorded” adds a separate entry of the source. Like-named read-outs stand apart in the source and are kept apart here."}
{"compound": "COc1ccc(C2CC(=NO)c3c(SCc4ccccc4)sc(C(=O)NCc4cccc(F)c4)c3C2)cc1", "note": "(stereo not shown) [Example A1.6, 3-(Benzylthio)-N-(3-fluorobenzyl)-4-(hydroxyimino)-6-(4-methoxyphenyl)-4,5,6,7-tetrahydrobenzo[c]thiophene-1-carboxamide]", "values": [{"measurement": "SAM cell viability", "setting": "SAMs; resazurin / CyQuant, listed as TA-4812", "result": "no effect"}, {"measurement": "SAM cell viability", "setting": "SAMs; resazurin / CyQuant, listed as TA-04812-1", "result": "little to no effect"}]}
{"compound": "O=C(NCCCc1cn[nH]c1)c1ccc(-c2ccncc2)c(C#Cc2ccc(F)cc2)c1", "note": "[OT-82]", "values": [{"measurement": "toxicity to SAMs in combination with inducers of the M1-phenotype (LPS and interferon-gamma)", "setting": "SAMs; resazurin", "result": "toxic"}, {"measurement": "toxicity to SAMs, OT-82 by itself", "setting": "SAMs; resazurin / CyQuant, 500 nM", "result": "low SAM toxicity; also recorded: almost non-toxic; also recorded: not toxic"}]}
{"compound": "CCOC(=O)c1sc(SCc2ccccc2)c2c1CC(c1ccc(OC)cc1)C/C2=N\\O", "note": "(stereo not shown) [Example A1.1]", "values": [{"measurement": "B16 growth in vitro", "setting": "B16 cells", "result": "did not inhibit"}, {"measurement": "IC50", "setting": "[1]; light or radiation study, mSQ, senescence induction: Irradiation, read-out: Activity against Senescent Cells (IC50; uM)", "result": 9.9, "unit": "µM"}, {"measurement": "IC50", "setting": "[1]; mSQ proliferating, read-out: Activity against Proliferating Cells (IC50; uM)", "result": 14.7, "unit": "µM"}, {"measurement": "IC50", "setting": "[1]; mSQ, senescence induction: Bleomycin, read-out: Activity against Senescent Cells (IC50; uM)", "result": 6.7, "unit": "µM"}, {"measurement": "Selectivity (Prolif/Sen)", "setting": "[1]; mSQ, Bleomycin", "result": 2.2}, {"measurement": "Selectivity (Prolif/Sen)", "setting": "[1]; mSQ, Irradiation", "result": 1.5}]}
